BindingDB's records for doi:10.1097/00001813-200302000-00012 (Korea Research Institute of Chemical Technology, 2003)

Assays:
[1] = TP_TRANSPORTER: drug resistance (paclitaxel) in MES-SA/DX5 cells
[2] = TP_TRANSPORTER: drug resistance (paclitaxel) in HCT15/CL02 cells

| Compound | IC50 [1] [µM] | IC50 [2] [µM] |
| --- | --- | --- |
| COc1ccc(CCN(C)CCC[C@@]2(C#N)CCc3c2ccc(OC)c3OC)cc1OC | 6.63 | 3.04 |
| COc1ccc(CCN(C)CCC[C@]2(C#N)CCc3c2ccc(OC)c3OC)cc1OC | 7.65 | 3.11 |
